In PubChem BioAssay AID602446 (National Center for Advancing Translational Sciences (NCATS), 2012):

Tested on: Caco-2 permeability efflux ratio
Experiment: High Content Assay for Compounds that inhibit the Assembly of the Perinucleolar Compartment: Efflux Ratio
Source text: The perinucleolar compartment (PNC) is a non-membrane-bound nuclear subdomain that is associated with but structurally distinct from the nucleolus. The PNC is a heritable trait, in which the number of PNCs per cell in daughter cells often mimics that of their mother cells. The PNC is heterogeneous in shape, is stable through interphase, disassembles during mitosis, and reassembles in early G1. The PNC is concentrated with newly synthesized RNA polymerase III (pol III) RNAs (MRP RNA, RNAse P H1 RNA, hY RNAs[hY1, 2, 5], Alu RNA, and SRP [7SL] RNA) and RNA binding proteins (nucleolin, PTB, CUG-BP, KSRP, Raver1, Raver2, and Rod).
In collaboration between Sui Huang from Northwestern University and the NCGC, a high content assay was developed and screened. The hits were then tested in follow-up assays. High-content tumor cell migration assays in 3-dimensional extracellular matrices are powerful tools for modeling and understanding the biology of this critical step in the process of metastasis. However, most of the available methods are not amenable to the throughput required by studies of comparative pharmacology or small scale screening. […]
8. […] The T0, LY and T90, LY plates are read by FlexStation 3 at excitation of 485 nm and emission of 535 nm to determine LY permeability. […]

N=c1c2c(-c3ccccc3)c(-c3ccccc3)n(Cc3ccccc3)c2ncn1C1CCC(O)CC1 (stereo unspecified)
efflux ratio: 11
